Experimental data reported in patent publication US9212209B2, “Screening methods for spinal muscular atrophy” (Indiana University Research and Technology Corporation, priority 2012, dated 2015).
≈ marks a conversion by molar mass, not a printed value. Where “and” joins values, the source holds several entries; their conditions need not be identical. Identical values can stand only once. Like-named read-outs stand apart in the source and are kept apart here.

How the values were obtained:
SMN2-luciferase reporter = SMN2-luciferase reporter assay (clonal HEK-293 SMN2-luc cells); format: cell-based, human; conditions: for Emax: read-out: Max % Activity; for Active: reporter assay
[1] = Solubility in PBS / aqueous solution; format: physicochemical
SMA mice = experiment: SMA mice, intraperitoneal dosing: lifespan, weight, time to right; format: in vivo, mouse; conditions: for lifespan / weight of the treated animals: words; for Time to right: individual pup, raw data
Description: The animal studies included new derivatives of LDN-76070 and LDN-75654. Mice were injected intraperitoneally once daily from post-natal day 1-10. […] Compounds LDN-212014, LDN-212016, LDN-212351, and LDN-212391 were injected into a cohort of animals (3-4 each). […] In the Kaplan-Meier curve that DMSO control decreased survival by 50%—the compounds were in […] (FIG. 26A).
LDN-212014 and LDN-76070 were further tested in A7 SMA model mice. Mice were dosed using compounds dissolved in 100% DMSO injected at 20 mg/kg with each dose administered once daily by intraperitoneal injection. As shown in the black curves in the Kaplan-Meier plot, control animals lived 4-5 days longer than the DMSO vehicle treated animals, indicating toxicity. […] In fact, the compounds display a statistically significant increase in survival compared with the untreated animals. These compounds extend the lifespan of SMA mice despite the DMSO toxicity.
In ‘time to right’ experiments, animals are placed on their backs and the duration for animals to right themselves is recorded. Animals that are unable to right in less than 30 seconds are scored as a failure. DMSO treated animals were unable to right themselves, while a small percentage of untreated animals display the ability to right themselves for up to postnatal day (PND) 11. A larger percentage of treated animals can right themselves past PND 17, and in the case of one animal as late as PND 21.

[2] = Liver microsome stability; conditions: for Stabilityin liver microsomes: Table 8; for Stability: Table 9; for half-life: mouse, liver microsomes
[3] = Homo sapiens, HEK293, reporter assay, Table 6, read-out: Ec50
[4] = Homo sapiens, HEK293, reporter assay, Table 6
[5] = IP once daily post-natal day 1-10, compounds in 20% DMSO, 3-4 animals each
[6] = IP once daily post-natal day 1-10, compounds in 20% DMSO
[7] = t1/2 in mouse liver microsomes, mouse liver microsomes

SMILES | EC50 (SMN2-luciferase reporter; [3]) [µM] | Emax (SMN2-luciferase reporter; [4]) [%] | Maximum % activation (SMN2-luciferase reporter; Table 7) [%] | Active (SMN2-luciferase reporter; Table 6) | lifespan (SMA mice; [5]) | weight of the treated animals (SMA mice; [6]) | Time to right (SMA mice; PND 6) | Time to right (SMA mice; PND 7) | Time to right (SMA mice; PND 8) | Time to right (SMA mice; PND 9) | Time to right (SMA mice; PND 10) | Time to right (SMA mice; PND 11) | Time to right (SMA mice; PND 12) | Time to right (SMA mice; PND 13) | Time to right (SMA mice; PND 14) | Time to right (SMA mice; PND 15) | Time to right (SMA mice; PND 16) | Time to right (SMA mice; PND 17) | Time to right (SMA mice; PND 18) | Time to right (SMA mice; PND 19) | also measured
O=C(Nc1ncc(C2(O)CCC2)s1)c1ccc(F)c(Cl)c1 [LDN-212014] | 0.5 | 180 | 156.6 ± 30.7 | Yes | extension of lifespan | increased | Fail (Fail = >30 sec) | Fail (Fail = >30 sec) | Fail (Fail = >30 sec) | Fail (Fail = >30 sec) (2×) and dead and 26 seconds | Fail (Fail = >30 sec) | 5 seconds and dead and Fail (Fail = >30 sec) (2×) | 16 s | Fail (Fail = >30 sec) | 5 s | 14 s | Fail (Fail = >30 sec) | Fail (Fail = >30 sec) | dead | dead | EC50 (SMN2-luciferase reporter; Table 7, read-out: EC50): 0.3 µM; Maximal solubility in PBS ([1]; PBS): >2000 µM; Time to right (SMA mice; PND 6, listed as 212014): dead; Time to right (SMA mice; PND 7, listed as 212014): dead; Time to right (SMA mice; PND 8, listed as 212014): dead; Time to right (SMA mice; PND 10, listed as 212014): dead; Time to right (SMA mice; PND 12, listed as 212014): dead; Time to right (SMA mice; PND 13, listed as 212014): dead; Time to right (SMA mice; PND 14, listed as 212014): dead; Time to right (SMA mice; PND 15, listed as 212014): dead; Time to right (SMA mice; PND 16, listed as 212014): dead; Time to right (SMA mice; PND 17, listed as 212014): dead; Time to right (SMA mice; PND 20): dead; lifespan (SMA mice; SMA model mice, 20 mg/kg once daily IP in 100% DMSO, vs DMSO vehicle, p<0.0001): significantly increased lifespan; T1/2 in liver microsomes ([2]; Table 7): 39 min; Stabilityin liver microsomes [2]: 39 min; Stability [2]: 39 min; half-life [2, 7]: 39 min
COc1cc2c(c(OC)c1OC)C(c1cc(Cl)ccc1F)CC(=O)N2 (stereo not drawn) [LDN-212351] | 12 | 150 | 168.5 ± 10.6 | Yes | extension of lifespan | increased | dead and Fail (Fail = >30 sec) (2×) and 3 seconds | dead and Fail (Fail = >30 sec) (2×) and 5 seconds | dead and Fail (Fail = >30 sec) (3×) | dead and 13 seconds and Fail (Fail = >30 sec) (2×) | dead and Fail (Fail = >30 sec) (3×) | dead (3×) and Fail (Fail = >30 sec) | dead (3×) and Fail (Fail = >30 sec) | dead (3×) and Fail (Fail = >30 sec) | dead (3×) and Fail (Fail = >30 sec) | dead | dead | dead | dead | dead | EC50 (SMN2-luciferase reporter; Homo sapiens, HEK293, Table 7, read-out: EC50): 9.8 µM; solubility ([1]; PBS, aqueous buffer, read-out: Maximal solubility in PBS): 500 µM (≈ 183 µg/mL); solubility ([1]; aqueous solution, Table 8, grades, read-out: Solubility in aqueous solution): < 500 µM; Time to right (SMA mice; PND 20): dead; Stabilityin liver microsomes [2]: 45 min; Stability [2]: 45 min; half-life ([2]; T1/2 in liver microsomes, Table 7): 45 min; half-life [2, 7]: 45 min
